{"source": "PubChem BioAssay (NCI)", "assay_in_all_cases": "NCI-60 cell line screen, 48 h", "key": {"[1]": {"system": "M14 melanoma"}, "[2]": {"system": "U251 CNS"}, "[3]": {"system": "NCI-H226 lung"}, "[4]": {"system": "SNB-19 CNS"}, "[5]": {"system": "HT29 colon"}, "[6]": {"system": "UACC-62 melanoma"}, "[7]": {"system": "UO-31 renal"}, "[8]": {"system": "CAKI-1 renal"}, "[9]": {"system": "A498 renal"}, "[10]": {"system": "HCT-15 colon"}, "[11]": {"system": "SK-MEL-5 melanoma"}, "[12]": {"system": "DU-145 prostate"}, "[13]": {"system": "OVCAR-8 ovarian"}, "[14]": {"system": "SF-295 CNS"}, "[15]": {"system": "MOLT-4 leukemia"}, "[16]": {"system": "HOP-92 NSCLC"}, "[17]": {"system": "KM12 colon"}, "[18]": {"system": "A549 NSCLC"}, "[19]": {"system": "SF-268 CNS"}, "[20]": {"system": "HCT-116 colon"}, "[21]": {"system": "HL-60(TB) leukemia"}, "[22]": {"system": "MDA-MB-435"}, "[23]": {"system": "PC-3 prostate"}, "[24]": {"system": "SW-620 colon"}, "[25]": {"system": "OVCAR-3 ovarian"}, "[26]": {"system": "SK-OV-3 ovarian"}, "[27]": {"system": "K-562 leukemia"}, "[28]": {"system": "ACHN renal"}, "[29]": {"system": "OVCAR-4 ovarian"}, "[30]": {"system": "RXF 393 renal"}, "[31]": {"system": "SK-MEL-28 melanoma"}, "[32]": {"system": "EKVX NSCLC"}, "[33]": {"system": "RPMI-8226 leukemia"}, "[34]": {"system": "MCF7 breast"}, "[35]": {"system": "MDA-MB-231 breast"}, "[36]": {"system": "UACC-257 melanoma"}, "[37]": {"system": "NCI-H522 lung"}, "[38]": {"system": "HOP-62 NSCLC"}, "[39]": {"system": "HS 578T breast"}, "[40]": {"system": "CCRF-CEM leukemia"}, "[41]": {"system": "SK-MEL-2 melanoma"}, "[42]": {"system": "BT-549 breast"}, "[43]": {"system": "SF-539 CNS"}, "[44]": {"system": "COLO 205 colon"}, "[45]": {"system": "TK-10 renal"}, "[46]": {"system": "SN12C renal"}, "[47]": {"system": "IGROV1 ovarian"}, "[48]": {"system": "SNB-75 CNS"}, "[49]": {"system": "786-0 renal"}, "[50]": {"system": "NCI-H460 lung"}, "[51]": {"system": "T-47D breast"}, "[52]": {"system": "LOX IMVI melanoma"}}, "note": "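All cell lines were grown in 96-well plates and treated with compound for 48 hours. GI50: concentration for 50% inhibition of growth. TGI: total growth inhibition.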", "data": [{"smiles": "O=C(NC1CCCCC1)NS(=O)(=O)c1ccc(-n2nc3c(c2-c2ccc(Cl)cc2)Cc2ccccc2-3)cc1", "values": [{"measurement": "GI50", "setting": "[1]", "value": 13.7, "unit": "µM"}, {"measurement": "TGI", "setting": "[1]", "value": "> 100", "unit": "µM"}, {"measurement": "GI50", "setting": "[2]", "value": 11.7, "unit": "µM"}, {"measurement": "TGI", "setting": "[2]", "value": 29.7, "unit": "µM"}, {"measurement": "GI50", "setting": "[3]", "value": 6.15, "unit": "µM"}, {"measurement": "TGI", "setting": "[3]", "value": 54.9, "unit": "µM"}, {"measurement": "GI50", "setting": "[4]", "value": 43.7, "unit": "µM"}, {"measurement": "TGI", "setting": "[4]", "value": "> 100", "unit": "µM"}, {"measurement": "GI50", "setting": "[5]", "value": 34.8, "unit": "µM"}, {"measurement": "TGI", "setting": "[5]", "value": "> 100", "unit": "µM"}, {"measurement": "GI50", "setting": "[6]", "value": 10.9, "unit": "µM"}, {"measurement": "TGI", "setting": "[6]", "value": 24, "unit": "µM"}, {"measurement": "GI50", "setting": "[7]", "value": 3.64, "unit": "µM"}, {"measurement": "TGI", "setting": "[7]", "value": 8.67, "unit": "µM"}, {"measurement": "GI50", "setting": "[8]", "value": 4.52, "unit": "µM"}, {"measurement": "TGI", "setting": "[8]", "value": 19.3, "unit": "µM"}, {"measurement": "GI50", "setting": "[9]", "value": 18.5, "unit": "µM"}, {"measurement": "TGI", "setting": "[9]", "value": 40.2, "unit": "µM"}, {"measurement": "GI50", "setting": "[10]", "value": 7.79, "unit": "µM"}, {"measurement": "TGI", "setting": "[10]", "value": 31.2, "unit": "µM"}, {"measurement": "GI50", "setting": "[11]", "value": 12.1, "unit": "µM"}, {"measurement": "TGI", "setting": "[11]", "value": 40.2, "unit": "µM"}, {"measurement": "GI50", "setting": "[12]", "value": 6.39, "unit": "µM"}, {"measurement": "TGI", "setting": "[12]", "value": 20.3, "unit": "µM"}, {"measurement": "GI50", "setting": "[13]", "value": 11.9, "unit": "µM"}, {"measurement": "TGI", "setting": "[13]", "value": 49.6, "unit": "µM"}, {"measurement": "GI50", "setting": "[14]", "value": 11.3, "unit": "µM"}, {"measurement": "TGI", "setting": "[14]", "value": 28.9, "unit": "µM"}, {"measurement": "GI50", "setting": "[15]", "value": 2.77, "unit": "µM"}, {"measurement": "TGI", "setting": "[15]", "value": 7.28, "unit": "µM"}, {"measurement": "GI50", "setting": "[16]", "value": 6.45, "unit": "µM"}, {"measurement": "TGI", "setting": "[16]", "value": 25, "unit": "µM"}, {"measurement": "GI50", "setting": "[17]", "value": 10.6, "unit": "µM"}, {"measurement": "TGI", "setting": "[17]", "value": 30.4, "unit": "µM"}, {"measurement": "GI50", "setting": "[18]", "value": 16.6, "unit": "µM"}, {"measurement": "TGI", "setting": "[18]", "value": 34.6, "unit": "µM"}, {"measurement": "GI50", "setting": "[19]", "value": 20.1, "unit": "µM"}, {"measurement": "TGI", "setting": "[19]", "value": 45.6, "unit": "µM"}, {"measurement": "GI50", "setting": "[20]", "value": 4.18, "unit": "µM"}, {"measurement": "TGI", "setting": "[20]", "value": "> 100", "unit": "µM"}, {"measurement": "GI50", "setting": "[21]", "value": 4.28, "unit": "µM"}, {"measurement": "TGI", "setting": "[21]", "value": 14.6, "unit": "µM"}, {"measurement": "GI50", "setting": "[22]", "value": 8.27, "unit": "µM"}, {"measurement": "TGI", "setting": "[22]", "value": 28.1, "unit": "µM"}, {"measurement": "GI50", "setting": "[23]", "value": 6.28, "unit": "µM"}, {"measurement": "TGI", "setting": "[23]", "value": 24.4, "unit": "µM"}, {"measurement": "GI50", "setting": "[24]", "value": 2.46, "unit": "µM"}, {"measurement": "TGI", "setting": "[24]", "value": "> 100", "unit": "µM"}, {"measurement": "GI50", "setting": "[25]", "value": 13.7, "unit": "µM"}, {"measurement": "TGI", "setting": "[25]", "value": 28.8, "unit": "µM"}, {"measurement": "GI50", "setting": "[26]", "value": 31.6, "unit": "µM"}, {"measurement": "TGI", "setting": "[26]", "value": "> 100", "unit": "µM"}, {"measurement": "GI50", "setting": "[27]", "value": 2.15, "unit": "µM"}, {"measurement": "TGI", "setting": "[27]", "value": 5.89, "unit": "µM"}, {"measurement": "GI50", "setting": "[28]", "value": 7.93, "unit": "µM"}, {"measurement": "TGI", "setting": "[28]", "value": 21, "unit": "µM"}, {"measurement": "GI50", "setting": "[29]", "value": 28.8, "unit": "µM"}, {"measurement": "TGI", "setting": "[29]", "value": "> 100", "unit": "µM"}, {"measurement": "GI50", "setting": "[30]", "value": 20, "unit": "µM"}, {"measurement": "TGI", "setting": "[30]", "value": 75.2, "unit": "µM"}, {"measurement": "GI50", "setting": "[31]", "value": 21.9, "unit": "µM"}, {"measurement": "TGI", "setting": "[31]", "value": 50.5, "unit": "µM"}, {"measurement": "GI50", "setting": "[32]", "value": 14.2, "unit": "µM"}, {"measurement": "TGI", "setting": "[32]", "value": 37.7, "unit": "µM"}, {"measurement": "GI50", "setting": "[33]", "value": 2.11, "unit": "µM"}, {"measurement": "TGI", "setting": "[33]", "value": 5.43, "unit": "µM"}, {"measurement": "GI50", "setting": "[34]", "value": 15.3, "unit": "µM"}, {"measurement": "TGI", "setting": "[34]", "value": 45.7, "unit": "µM"}, {"measurement": "GI50", "setting": "[35]", "value": 6.43, "unit": "µM"}, {"measurement": "TGI", "setting": "[35]", "value": 23, "unit": "µM"}, {"measurement": "GI50", "setting": "[36]", "value": 18.4, "unit": "µM"}, {"measurement": "TGI", "setting": "[36]", "value": 39.8, "unit": "µM"}, {"measurement": "GI50", "setting": "[37]", "value": 18.3, "unit": "µM"}, {"measurement": "TGI", "setting": "[37]", "value": 52.5, "unit": "µM"}, {"measurement": "GI50", "setting": "[38]", "value": 35.8, "unit": "µM"}, {"measurement": "TGI", "setting": "[38]", "value": "> 100", "unit": "µM"}, {"measurement": "GI50", "setting": "[39]", "value": 5.03, "unit": "µM"}, {"measurement": "TGI", "setting": "[39]", "value": 39.2, "unit": "µM"}, {"measurement": "GI50", "setting": "[40]", "value": 1.13, "unit": "µM"}, {"measurement": "TGI", "setting": "[40]", "value": 4.36, "unit": "µM"}, {"measurement": "GI50", "setting": "[41]", "value": 19.4, "unit": "µM"}, {"measurement": "TGI", "setting": "[41]", "value": 44.2, "unit": "µM"}, {"measurement": "GI50", "setting": "[42]", "value": 3.52, "unit": "µM"}, {"measurement": "TGI", "setting": "[42]", "value": 17.3, "unit": "µM"}, {"measurement": "GI50", "setting": "[43]", "value": 11.2, "unit": "µM"}, {"measurement": "TGI", "setting": "[43]", "value": 27.7, "unit": "µM"}, {"measurement": "GI50", "setting": "[44]", "value": 36.2, "unit": "µM"}, {"measurement": "TGI", "setting": "[44]", "value": "> 100", "unit": "µM"}, {"measurement": "GI50", "setting": "[45]", "value": 13.3, "unit": "µM"}, {"measurement": "TGI", "setting": "[45]", "value": 26.9, "unit": "µM"}, {"measurement": "GI50", "setting": "[46]", "value": 7.54, "unit": "µM"}, {"measurement": "TGI", "setting": "[46]", "value": 30.3, "unit": "µM"}, {"measurement": "GI50", "setting": "[47]", "value": 18.6, "unit": "µM"}, {"measurement": "TGI", "setting": "[47]", "value": 35.8, "unit": "µM"}, {"measurement": "GI50", "setting": "[48]", "value": 27.6, "unit": "µM"}, {"measurement": "TGI", "setting": "[48]", "value": "> 100", "unit": "µM"}, {"measurement": "GI50", "setting": "[49]", "value": 5.07, "unit": "µM"}, {"measurement": "TGI", "setting": "[49]", "value": "> 100", "unit": "µM"}, {"measurement": "GI50", "setting": "[50]", "value": 19.8, "unit": "µM"}, {"measurement": "TGI", "setting": "[50]", "value": 46, "unit": "µM"}, {"measurement": "GI50", "setting": "[51]", "value": 49.8, "unit": "µM"}, {"measurement": "TGI", "setting": "[51]", "value": "> 100", "unit": "µM"}, {"measurement": "GI50", "setting": "[52]", "value": 1.94, "unit": "µM"}, {"measurement": "TGI", "setting": "[52]", "value": 4.12, "unit": "µM"}]}]}
